Laboratory results: US10640506B2, “Cyclobutyl substituted pyrrolopyridine and pyrrolopyrimidines derivatives as JAK inhibitors” (Incyte Corporation, priority 2010, dated 2020)
Like-named read-outs stand apart in the source and are kept apart here.

How the values were obtained:
[1] = biological target: human JAK1 (a.a. 837-1142) (Homo sapiens, UniProt P23458); assay: In vitro JAK kinase assay (HTRF, phosphorylation of biotinylated peptide), JAK1; format: biochemical; settings: 1 mM ATP
Procedure, shortened: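 His-tagged human JAK1 catalytic domain (a.a. 837-1142), baculovirus/insect-cell expressed, phosphorylates a biotinylated peptide for 1 h at room temperature. Reaction stopped with EDTA; product detected by HTRF (SA-APC, Eu-Py20, 40 min binding). IC50 reported as ranges.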

[2] = biological target: T1, JAK2 (a.a. 828-1132) (Homo sapiens, UniProt O60674); assay: In vitro JAK kinase assay (HTRF, phosphorylation of biotinylated peptide), JAK2; format: biochemical; settings: 1 mM ATP
T1 construct: JAK2 (a.a. 828-1132); His tag (N)
Procedure, shortened: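 His-tagged catalytic domains of human JAK1 (a.a. 837-1142) and JAK2 (a.a. 828-1132), baculovirus-expressed, phosphorylate a biotinylated peptide for 1 hour at room temperature. Stopped with EDTA; detected by HTRF using SA-APC and Eu-Py20 antibody after 40 min binding; values binned as ranges.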

T1 sequence (O60674 828-1132): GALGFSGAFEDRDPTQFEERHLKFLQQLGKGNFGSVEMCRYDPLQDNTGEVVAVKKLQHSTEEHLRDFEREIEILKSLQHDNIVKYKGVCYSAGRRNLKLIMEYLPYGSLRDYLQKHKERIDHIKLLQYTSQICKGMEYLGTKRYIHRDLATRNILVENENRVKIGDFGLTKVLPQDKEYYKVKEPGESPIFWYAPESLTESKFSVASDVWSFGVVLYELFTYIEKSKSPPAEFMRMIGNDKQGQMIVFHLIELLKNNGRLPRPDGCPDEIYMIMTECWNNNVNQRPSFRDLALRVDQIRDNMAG
Sequence of human JAK1 (a.a. 837-1142) (P23458 849-1154): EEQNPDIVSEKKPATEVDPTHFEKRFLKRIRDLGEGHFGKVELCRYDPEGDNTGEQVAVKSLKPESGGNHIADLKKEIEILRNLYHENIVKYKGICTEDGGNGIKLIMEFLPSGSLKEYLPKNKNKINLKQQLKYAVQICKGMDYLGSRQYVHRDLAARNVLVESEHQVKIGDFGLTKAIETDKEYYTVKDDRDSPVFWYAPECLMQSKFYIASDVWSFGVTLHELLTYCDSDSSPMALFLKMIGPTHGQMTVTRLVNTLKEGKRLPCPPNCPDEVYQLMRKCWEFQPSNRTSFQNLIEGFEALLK

| IC50 ([1]; Table B, read-out: JAK1 IC50) [nM] | IC50 ([2]; Table B, read-out: JAK2 IC50) [nM] | IC50 ([1]; Table F) [nM] | IC50 ([2]; Table F) [nM] | SMILES |
| --- | --- | --- | --- | --- |
| < 10 | 10 to 25 |  |  | CN(C)Cc1cc(F)cc(CN2CCN([C@H]3C[C@](CC#N)(n4cc(-c5ncnc6[nH]ccc56)cn4)C3)CC2)c1 [Example 34, {trans-3-(4-{3-[(dimethylamino)methyl]-5-fluorobenzyl}piperazin-1-yl)-1-[4-(7H-pyrrolo[2,3-d]pyrimidin-4-yl)-1H-pyrazol-1-yl]cyclobutyl}acetonitrile] |
| < 10 | < 10 |  |  | N#CC[C@]1(n2cc(-c3ncnc4[nH]ccc34)cn2)C[C@H](N2CCN(S(=O)(=O)C3CC3)CC2)C1 [Example 36, {trans-3-[4-(cyclopropylsulfonyl)piperazin-1-yl]-1-[4-(7H-pyrrolo[2,3-d]pyrimidin-4-yl)-1H-pyrazol-1-yl]cyclobutyl}acetonitrile] |
| < 10 | < 10 |  |  | CN(C)S(=O)(=O)N1CCN([C@H]2C[C@](CC#N)(n3cc(-c4ncnc5[nH]ccc45)cn3)C2)CC1 [Example 37, 4-{trans-3-(cyanomethyl)-3-[4-(7H-pyrrolo[2,3-d]pyrimidin-4-yl)-1H-pyrazol-1-yl]cyclobutyl}-N,N-dimethylpiperazine-1-sulfonamide] |
| < 10 | 25 to 100 |  |  | CCN(C)C(=O)N1CCN([C@H]2C[C@](CC#N)(n3cc(-c4ncnc5[nH]ccc45)cn3)C2)CC1 [Example 38, 4-{trans-3-(cyanomethyl)-3-[4-(7H-pyrrolo[2,3-d]pyrimidin-4-yl)-1H-pyrazol-1-yl]cyclobutyl}-N-ethyl-N-methylpiperazine-1-carboxamide] |
| < 10 | 25 to 100 |  |  | CN(C)Cc1cc(C(=O)N2CCN([C@H]3C[C@](CC#N)(n4cc(-c5ncnc6[nH]ccc56)cn4)C3)CC2)cc(C(F)(F)F)c1 [Example 39, {trans-3-{4-[3-[(dimethylamino)methyl]-5-(trifluoromethyl)benzoyl]piperazin-1-yl}-1-[4-(7H-pyrrolo[2,3-d]pyrimidin-4-yl)-1H-pyrazol-1-yl]cyclobutyl}acetonitrile] |
|  |  | < 10 | > 100 | CN(C)Cc1cc(C#N)cc(C(=O)N2CCN([C@H]3C[C@@](CC#N)(n4cc(-c5ncnc6[nH]ccc56)cn4)C3)CC2)c1 [Example 42, 3-[(4-{cis-3-(cyanomethyl)-3-[4-(7H-pyrrolo[2,3-d]pyrimidin-4-yl)-1H-pyrazol-1-yl]cyclobutyl}piperazin-1-yl)carbonyl]-5-[(dimethylamino)methyl]benzonitrile] |
|  |  | 10 to 25 | > 100 | CN(C)Cc1cc(C#N)cc(CN2CCN([C@H]3C[C@@](CC#N)(n4cc(-c5ncnc6[nH]ccc56)cn4)C3)CC2)c1 [Example 44, 3-[(4-{cis-3-(cyanomethyl)-3-[4-(7H-pyrrolo[2,3-d]pyrimidin-4-yl)-1H-pyrazol-1-yl]cyclobutyl}piperazin-1-yl)methyl]-5-[(dimethylamino)methyl]benzonitrile] |
|  |  | > 100 | > 100 | CN(C)Cc1cc(CN2CCN([C@H]3C[C@](CC#N)(n4cc(-c5ncnc6[nH]ccc56)cn4)C3)CC2)cc(C(F)(F)F)c1 [Example 45, {trans-3-{4-[3-[(dimethylamino)methyl]-5-(trifluoromethyl)benzyl]piperazin-1-yl}-1-[4-(7H-pyrrolo[2,3-d]pyrimidin-4-yl)-1H-pyrazol-1-yl]cyclobutyl}acetonitrile] |
|  |  | 25 to 100 | > 100 | CN(C)Cc1cc(CN2CCN([C@H]3C[C@@](CC#N)(n4cc(-c5ncnc6[nH]ccc56)cn4)C3)CC2)cc(C(F)(F)F)c1 [Example 46, {cis-3-{4-[3-[(dimethylamino)methyl]-5-(trifluoromethyl)benzyl]piperazin-1-yl}-1-[4-(7H-pyrrolo[2,3-d]pyrimidin-4-yl)-1H-pyrazol-1-yl]cyclobutyl}acetonitrile] |
